Assay results taken from patent publication US12528777B2, “Quinazolinones derivatives for treatment of non-alcoholic fatty liver disease, preparation and use thereof” (Council of Scientific and Industrial Research, priority 2020, dated 2026).
“Also recorded” adds a separate entry of the source.

Tests used:
[1] = target: T1, COP1 (Mus musculus, UniProt Q9R1A8); assay: In vivo study: COP1 level in mouse liver; set-up: from tissue; host or cells: mouse liver (in vivo dosing); species or system C57BL/6 mice; settings: 30 mg/kg orally
T1 sequence (Q9R1A8 whole entry): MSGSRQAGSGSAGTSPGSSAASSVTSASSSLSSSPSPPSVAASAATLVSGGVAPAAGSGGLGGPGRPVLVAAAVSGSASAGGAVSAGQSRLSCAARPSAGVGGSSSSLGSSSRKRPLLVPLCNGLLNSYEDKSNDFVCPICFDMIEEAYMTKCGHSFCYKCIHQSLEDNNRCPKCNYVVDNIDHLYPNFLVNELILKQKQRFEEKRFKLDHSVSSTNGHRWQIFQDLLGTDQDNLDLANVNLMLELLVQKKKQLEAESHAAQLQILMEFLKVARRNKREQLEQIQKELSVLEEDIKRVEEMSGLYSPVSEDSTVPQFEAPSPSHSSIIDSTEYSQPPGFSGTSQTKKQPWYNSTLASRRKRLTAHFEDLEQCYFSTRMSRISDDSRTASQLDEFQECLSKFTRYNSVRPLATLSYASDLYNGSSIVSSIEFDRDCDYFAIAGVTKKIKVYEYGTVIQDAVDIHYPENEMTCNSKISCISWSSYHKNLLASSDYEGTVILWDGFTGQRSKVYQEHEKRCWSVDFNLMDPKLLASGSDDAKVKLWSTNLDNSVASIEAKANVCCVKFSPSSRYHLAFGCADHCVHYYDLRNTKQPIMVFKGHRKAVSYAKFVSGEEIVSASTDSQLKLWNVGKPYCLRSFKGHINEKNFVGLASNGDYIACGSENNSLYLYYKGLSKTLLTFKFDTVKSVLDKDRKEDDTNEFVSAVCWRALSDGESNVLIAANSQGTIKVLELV
Method: 6-8 weeks old healthy female C57BL/6 mice (average weight: 25 grams) were taken for the study. These were then divided into three groups comprising of three mice per group (Control, compound 107 fed for 8 hours and compound 107 fed for 16 hours). Mice were fed with 30 mg/kg of compound 107 orally. The compound was dissolved in 25% DMSO and 75% PBS. The control group was fed only with the solvent in which the compound was dissolved. Post 8 hours and 16 hours of feeding, mice were sacrificed and a portion of the excised liver tissue was homogenized in lysis buffer containing protease inhibitor cocktail. The homogenate was centrifuged at 20,000 g for 30 minutes following which the supernatant containing the protein lysate was collected. The lysate was then diluted accordingly and protein estimation was carried out by Bradford Assay. This was followed by Western Blotting wherein the levels of ATGL and COP1 were checked. Actin was used as the loading control.

[2] = target: COP1 (Homo sapiens, UniProt Q8NHY2); assay: Western blot of COP1 level in HepG2 cells; assay type: cell-based; settings: 24 hours, dose dependent
Sequence of COP1 (Homo sapiens, UniProt Q8NHY2) (Q8NHY2 whole entry): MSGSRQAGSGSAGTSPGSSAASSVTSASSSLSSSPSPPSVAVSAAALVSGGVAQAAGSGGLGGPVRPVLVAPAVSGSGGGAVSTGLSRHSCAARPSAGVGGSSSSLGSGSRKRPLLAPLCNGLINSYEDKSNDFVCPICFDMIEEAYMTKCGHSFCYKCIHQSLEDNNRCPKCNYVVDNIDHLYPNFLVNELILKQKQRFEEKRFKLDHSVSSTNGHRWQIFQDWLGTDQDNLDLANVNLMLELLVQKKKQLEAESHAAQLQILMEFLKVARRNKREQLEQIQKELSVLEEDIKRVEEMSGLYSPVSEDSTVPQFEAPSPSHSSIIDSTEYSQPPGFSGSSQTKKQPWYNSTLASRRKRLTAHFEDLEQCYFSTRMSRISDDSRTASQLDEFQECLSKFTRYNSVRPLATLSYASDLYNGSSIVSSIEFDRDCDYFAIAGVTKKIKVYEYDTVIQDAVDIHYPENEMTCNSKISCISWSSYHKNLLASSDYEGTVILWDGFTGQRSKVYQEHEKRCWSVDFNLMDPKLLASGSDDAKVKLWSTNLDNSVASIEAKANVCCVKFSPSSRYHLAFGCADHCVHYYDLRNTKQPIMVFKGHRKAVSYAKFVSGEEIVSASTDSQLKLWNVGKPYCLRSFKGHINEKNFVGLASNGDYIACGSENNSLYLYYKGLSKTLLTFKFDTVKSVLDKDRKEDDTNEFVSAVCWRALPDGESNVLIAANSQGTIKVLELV
Method: HepG2 cells were treated with the compounds 9, 10, 11, 17, 18, 23, 24, 115, 123, 127, 139,107, 171, 179, 73, 187, 211, 215, 219, 223, 232, 238, 241, 244, 258, 299, 308, and 333a, (10 μM for initial screening and 50 nM, 100 nM, 200 nM, 500 nM, 1 μM and 5 μM for dose dependent assays) for 24 hours. After removing media from the cells, the wells were washed with 1×PBS twice to remove any remnant media. Cells were then lysed in lysis buffer containing 50 mM Tris-HCl (pH 7.4), 100 mM NaCl, 1 mM EDTA, 1 mM EGTA, 1% Triton X-100 and protease inhibitor cocktail (Millipore, Billierica, MA, USA). Following centrifugation at 20,000 g for 20 minutes, the protein solution was extracted from the cells. Protein was estimated using Bradford assay. Bradford's reagent (BioRad) was diluted in 1:4 ratio in double distilled water. 2 μl of protein sample was added to 100 μl of the reagent and absorbance was measured at 595 nm. […] of protein was diluted in lysis buffer. 1× loading buffer diluted from 5× stock containing 250 mM Tris-HCl (pH 6.8), 10% SDS, 50% glycerol, 0.1% bromophenol Blue and 10% β-mercaptoethanol was added. The protein samples were then heated at 95° C. for 10 minutes, cooled and centrifuged at 12,000 g for 2 minutes prior to loading.
For western blotting, the proteins were resolved in 10% SDS PAGE (discontinuous buffer system). […]

[3] = target: T1, COP1; assay: COP1 level in primary mouse hepatocytes (western blot); assay type: cell-based; set-up: endogenous in cells; host or cells: primary mouse hepatocytes (C57bl/6); settings: 24 hours
Method: To further strengthen the efficiency of the compounds 9 and 107, primary hepatocytes were isolated from mice and these compounds were treated in a dose dependent manner for 24 hours. Primary hepatocytes and adipose tissue explants were isolated from mice and subjected to compound treatment for 24 hours at the doses of 100 nM, 500 nM and 1 μM. Post cell harvesting, western blot was carried out with the lysate to check the ATGL level. ATGL and COP1 antibodies were used. Actin served the purpose of a loading control.
1. Hepatocytes—2-4 months old chow-fed black male mouse (C57bl/6) was sacrificed using chloroform (SRL) and was cleaned with 70% ethanol. […] Blood was drawn from the heart in order to prevent backflow into liver while perfusion. The butterfly cannula was inserted into the PV and 20 ml of HBSS (Hank's Balanced Salt Solution; 5 mM KCl, 0.4 mM KH2PO4, 4 mM NaHCO3, 140 mM NaCl, 0.3 mM Na2HPO4, 6 mM Glucose, HEPES, 0.5 mM MgCl2·6H2O, 0.4 mM MgSO4·7H2O, 0.5 mM EDTA; not containing 1 mM CaCl2)) was allowed to pass through the liver (Perfusion) at a constant flow rate of 3 ml/min, maintained by Masterflex digital peristaltic pump (Cole-Parmer). The IVC was cut as soon as the passage of the buffer through the liver began, so that blood and perfusate from liver is drained through the IVC. The liver blanched and became pale in color upon this treatment. […]

Row | SMILES | COP1 level in liver, 8 hours after feeding [1] | COP1 level in HepG2 cells [2] | COP1 level in primary mouse hepatocytes [3]
1 | COCCn1c(C)nc2ccc(NC(=O)Nc3cccc(C(C)=O)c3)cc2c1=O [Compound 107, 1-(3-acetylphenyl)-3-(3-(2-methoxyethyl)-2-methyl-4-oxo-3,4-dihydroquinazolin-6-yl)urea] | no such effect on COP1; also recorded: no significant impact |  | 
2 | COCCn1c(CN2CCCCC2)nc2ccc(NC(=O)Nc3cccc(C(C)=O)c3)cc2c1=O [Compound 238, 1-(3-acetylphenyl)-3-(3-(2-methoxyethyl)-4-oxo-2-(piperidin-1-ylmethyl)-3,4-dihydroquinazolin-6-yl)urea] |  | most potent in increasing ATGL and COP1 levels; also recorded: increase in ATGL and COP1 levels | increase ATGL and COP1 levels dose dependently; also recorded: increased only with 5 μM concentration
